In patent US12226399B2, “Oral aqueous suspension formulation comprising carbamate compound” (SK BIOPHARMACEUTICALS CO., LTD., priority 2021, dated 2025):

Experiment: Visual wetting of cenobamate API on wetting agent solution
Type: physicochemical
Conditions: in the presence of poloxamer 188; time for cenobamate to fall below the surface
Method: Poloxamer 188 was evaluated at different concentrations for sedimentation volume, dispensability and wettability of cenobamate containing dispersion in a neat citrate or phosphate buffer at pH 3 to 7. Approximately one hundred milligrams (100 mg) of cenobamate was dispersed in 10 mL of the poloxamer liquid at the concentration of 0.10, 0.50, 1.00, and 1.50 mg/mL in phosphate buffer pH 4.2 and the dispersions were evaluated for sedimentation volume, re-dispersibility, and wettability. Additionally, separate samples containing poloxamer 188 at the concertation of 0.1 mg/ml were also prepared in citrate buffer at different levels of pH (pH 3.5, 4.2 and 5.2), and evaluated in the same manner.
The volume of the sedimentation layer is an indicator to the amount of spacing between the particles in the sediment layer. Physical observations indicated these dispersions settled rapidly but formed a loosely packed layer which was very easily re-dispersed after inversion and/or shaking (FIGS. 1 and 2).
The following intended effects that were observed are immediate wetting of most of the material after adding cenobamate to the poloxamer solution, rapid and loose initial sedimentation within first 30 minutes to 1 hour as measured by ratio of sediment volume to total volume, no caking and efficient re-dispersion, rapidly dispersing material after shaking the settled sample for 10 seconds.

## NC(=O)O[C@@H](Cn1ncnn1)c1ccccc1Cl [cenobamate, carbamic acid (R)-1-(2-chlorophenyl)-2-tetrazol-2-yl-ethyl ester]
  Wetting of cenobamate: good wetting
